Experimental data from the CombiSolv-Exp solvation set (Vermeire and Green 2021).
Blank lines part the entries; values can stand above or below the compound they belong to.

Experiment: solvent given as SMILES

- solvation free energy, 298 K (in O): -3.2 kcal/mol
Structure (SMILES): CCCCCCCCCCCCCN

Structure (SMILES): CSSC
- solvation free energy, 298 K (in O): -1.74 kcal/mol

Structure (SMILES): CCCC[N+](=O)[O-]
- solvation free energy, 298 K (in CCCCCC): -4.64 kcal/mol
- solvation free energy, 298 K (in O): -3.1 kcal/mol

Structure (SMILES): C=CC=C
- solvation free energy, 298 K (in C1CCC2CCCCC2C1): -2.17 kcal/mol
- solvation free energy, 298 K (in C1COCCO1): -2.03 kcal/mol
- solvation free energy, 298 K (in C=Cc1ccccc1): -2.36 kcal/mol
- solvation free energy, 298 K (in CC1COC(=O)O1): -1.97 kcal/mol
- solvation free energy, 298 K (in CC#N): -2.15 kcal/mol
- solvation free energy, 298 K (in CC(=O)N(C)C): -2.56 kcal/mol
- solvation free energy, 298 K (in CC(C)(C)O): -2.07 kcal/mol
- solvation free energy, 298 K (in CC(C)=O): -2.74 kcal/mol
- solvation free energy, 298 K (in CC(C)CCO): -2.09 kcal/mol
- solvation free energy, 298 K (in CC(C)CO): -2.06 kcal/mol
- solvation free energy, 298 K (in CC(C)O): -2.09 kcal/mol
- solvation free energy, 298 K (in CCC(C)(C)O): -2.16 kcal/mol
- solvation free energy, 298 K (in CCC(C)CO): -2.06 kcal/mol
- solvation free energy, 298 K (in CCC(C)O): -2.07 kcal/mol
- solvation free energy, 298 K (in CCC(O)CC): -2.09 kcal/mol
- solvation free energy, 298 K (in CCCC(C)O): -2.07 kcal/mol
- solvation free energy, 298 K (in CCCCCCC): -2.67 kcal/mol
- solvation free energy, 298 K (in CCCCCCCCCCCCCCCC): -2.1 kcal/mol
- solvation free energy, 298 K (in CCCCCO): -2.11 kcal/mol
- solvation free energy, 298 K (in CCCCO): -2.11 kcal/mol
- solvation free energy, 298 K (in CCCO): -2.16 kcal/mol
- solvation free energy, 298 K (in CCOC(C)=O): -2.84 kcal/mol
- solvation free energy, 298 K (in CCOCC): -2.72 kcal/mol
- solvation free energy, 298 K (in CN1CCCC1=O): -2.36 kcal/mol
- solvation free energy, 298 K (in CN(C)C=O): -2.29 kcal/mol
- solvation free energy, 298 K (in CN(C)P(=O)(N(C)C)N(C)C): -2.46 kcal/mol
- solvation free energy, 298 K (in CO): -2.14 kcal/mol
- solvation free energy, 298 K (in COC(C)=O): -2.26 kcal/mol
- solvation free energy, 298 K (in COCCOCCOCCOC): -2.05 kcal/mol
- solvation free energy, 298 K (in CS(C)=O): -1.8 kcal/mol
- solvation free energy, 298 K (in Cc1ccc(C)cc1): -2.45 kcal/mol
- solvation free energy, 298 K (in Cc1cccc(C)c1): -2.48 kcal/mol
- solvation free energy, 298 K (in Cc1ccccc1C): -2.46 kcal/mol
- solvation free energy, 298 K (in ClCCl): -2.83 kcal/mol
- solvation free energy, 298 K (in Nc1ccccc1): -2.06 kcal/mol
- solvation free energy, 298 K (in O): 0.6 kcal/mol
- solvation free energy, 298 K (in OCCCOCCCO): -1.73 kcal/mol
- solvation free energy, 298 K (in OCCO): -1.35 kcal/mol
- solvation free energy, 298 K (in OCc1ccccc1): -1.95 kcal/mol

- solvation free energy, 298 K (in O): 2.55 kcal/mol
Structure (SMILES): CCCCCC1CCCC1

Structure (SMILES): Clc1ccc(Cl)c(-c2cc(Cl)c(Cl)cc2Cl)c1
- solvation free energy, 298 K (in CCCCCCCCO): -12 kcal/mol
- solvation free energy, 298 K (in O): -2.82 kcal/mol

Structure (SMILES): CCN
- solvation free energy, 298 K (in CCCCCC): -2.29 kcal/mol
- solvation free energy, 298 K (in CCCCCCC): -2.09 kcal/mol
- solvation free energy, 298 K (in CCCCCCCC): -2.05 kcal/mol
- solvation free energy, 298 K (in CCCCCCCCCC): -1.93 kcal/mol
- solvation free energy, 298 K (in CCCCCCCCCCCCCCCC): -2.22 kcal/mol
- solvation free energy, 298 K (in O): -4.5 kcal/mol

- solvation free energy, 298 K (in O): 3.43 kcal/mol
Structure (SMILES): FC1(F)C(F)(F)C(F)(F)C1(F)F

- solvation free energy, 298 K (in O): -6.55 kcal/mol
Structure (SMILES): CC(C)CCCCOC(=O)c1ccccc1C(=O)OCCCCC(C)C

- solvation free energy, 298 K (in O): -5.93 kcal/mol
Structure (SMILES): CC(C)CCCC(C)C1CCC2C3CC=C4CC(O)CCC4(C)C3CCC12C (stereo not drawn)

Structure (SMILES): CCCc1ccccc1
- solvation free energy, 298 K (in C1CCOC1): -6.63 kcal/mol
- solvation free energy, 298 K (in CC#N): -5.61 kcal/mol
- solvation free energy, 298 K (in CC(C)CC(C)(C)C): -5.89 kcal/mol
- solvation free energy, 298 K (in CC(C)O): -5.41 kcal/mol
- solvation free energy, 298 K (in CCCCCC): -5.55 kcal/mol
- solvation free energy, 298 K (in CCCCCCC): -5.92 kcal/mol
- solvation free energy, 298 K (in CCCCCCCCCC): -5.23 kcal/mol
- solvation free energy, 298 K (in CCCCCCCCCCCCCCCC): -5.76 kcal/mol
- solvation free energy, 298 K (in CCCCCCCCO): -5.58 kcal/mol
- solvation free energy, 298 K (in CO): -5.31 kcal/mol
- solvation free energy, 298 K (in NC=O): -3.49 kcal/mol
- solvation free energy, 298 K (in O): -0.56 kcal/mol
- solvation free energy, 298 K (in OCCO): -3.65 kcal/mol
- solvation free energy, 298 K (in OCCOCCO): -4.55 kcal/mol
- solvation free energy, 298 K (in OCCOCCOCCO): -4.69 kcal/mol

- solvation free energy, 298 K (in CCCCCC): -7.56 kcal/mol
- solvation free energy, 298 K (in CN(C)C=O): -5.57 kcal/mol
- solvation free energy, 298 K (in COCCO): -5.15 kcal/mol
Structure (SMILES): CCCCCCCCCCC

Structure (SMILES): C1COCCOCCOCCOCCOC1
- solvation free energy, 298 K (in Cc1cccc(C)c1): -11.4 kcal/mol
- solvation free energy, 298 K (in O): -12.5 kcal/mol

Structure (SMILES): Clc1ccc(Cl)cc1
- solvation free energy, 298 K (in CCCCCC): -6.06 kcal/mol
- solvation free energy, 298 K (in CCCCCCC): -5.81 kcal/mol
- solvation free energy, 298 K (in CCCCCCCCC=CCCCCCCCC(=O)OCC(COC(=O)CCCCCCCC=CCCCCCCCC)OC(=O)CCCCCCCC=CCCCCCCCC): -6.7 kcal/mol
- solvation free energy, 298 K (in O): -1.01 kcal/mol

Structure (SMILES): FC(F)Cl
- solvation free energy, 298 K (in CCCCCCCC(=O)OCC(COC(=O)CCCCCCC)OC(=O)CCCCCCC): -1.69 kcal/mol
- solvation free energy, 298 K (in CCCCCCCCC): -1.16 kcal/mol

Structure (SMILES): CCCCCCCCCCCCCCCCCCCCCCCCCCCC
- solvation free energy, 298 K (in CC(=O)N(C)C): -18.9 kcal/mol
- solvation free energy, 298 K (in CC(C)(C)O): -16.9 kcal/mol
- solvation free energy, 298 K (in CCC(C)=O): -17.1 kcal/mol
- solvation free energy, 298 K (in CCCCCO): -17 kcal/mol
- solvation free energy, 298 K (in CCCCO): -16.7 kcal/mol
- solvation free energy, 298 K (in CCCCOC(C)=O): -17.9 kcal/mol
- solvation free energy, 298 K (in CCCO): -16.4 kcal/mol
- solvation free energy, 298 K (in CN(C)C=O): -19 kcal/mol
- solvation free energy, 298 K (in Cc1ccc(C)cc1): -19.3 kcal/mol
- solvation free energy, 298 K (in Cc1cccc(C)c1): -19.2 kcal/mol
- solvation free energy, 298 K (in ClCCl): -18.6 kcal/mol
- solvation free energy, 298 K (in O): 5.92 kcal/mol
